# Assay results as given in patent publication US9877981B2, “NAD biosynthesis and precursors for the treatment and prevention of cancer and proliferation” (President and Fellows of Harvard College, priority 2012, dated 2018).
# Tests used:
# PGC-1α/β KO myotubes = assay: qPCR of ETC genes in PGC-1α/β KO myotubes; type: cell-based, mouse; parameters: expression of mitochondrially-encoded ETC genes (ND1, CYTB, COX1, ATP6): dose or concentration left out as unconfirmed
# Experimental: Primary myoblasts cells were isolated from WT, SIRT1 KO (Price et al., 2012) and PGC-1α/β KO (Zechner et al., 2010) mice as previously described (Price et al., 2012). WT and PGC-1α/β KO primary myoblasts were plated and allowed to differentiate into myotubes by replacing the media with low glucose DMEM supplemented with 2% horse serum (Sigma-Aldrich) for 4 days. After the differentiation the cells were infected with empty vector or flag-SIRT1 adenovirus as described before (Gerhart-Hines et al., 2007). Media was replaced with fresh DMEM supplemented with 2% horse serum (Sigma-Aldrich) for an additional 48 hr and, after that the cells were harvested for the different assays as described. To investigate the role of HIF-1α in genome asynchrony, PGC-1α/β KO primary myotubes were treated for 12 hours with 1 mM DMOG (Sigma) or 10 μM DFO (Sigma), 24 h after infection with empty vector of flag-SIRT1 adenovirus or after 12 h treatment with […] NMN (Sigma).
# (§1) RNA from skeletal muscle tissue and C2C12 cells were extracted with RNeasy mini kit (Qiagen) according to the instructions and quantified using the NanoDrop 1000 spectrophotometer (Thermo Scientific). cDNA was synthesized with the iSCRIP cDNA synthesis kit (BioRad) using 600 ng of RNA. Quantitative RT-PCR reactions were performed using 1 μM of primers and LightCycler® 480 SYBR Green Master (Roche) on an LightCycler® 480 detection system (Roche). Calculations were performed by a comparative method (2-ΔCT) using 18S as an internal control. For mtDNA analysis, total DNA was extracted with DNeasy blood and tissue kit (Qiagen). mtDNA was amplified using primers specific for the mitochondrial cytochrome c oxidase subunit 2 (COX2) gene and normalized to genomic DNA by amplification of the ribosomal protein s18 (rps18) nuclear gene. Primers were designed using the IDT software (IDT) and the primer sequences can be found in Table 1.
# [1] = system: skeletal muscle mitochondria; assay: Mitochondrial function in skeletal muscle of treated mice (membrane potential, ATP content, COX activity); type: in vivo
# Experimental: C57BL/6J mice of 3, 6, 22, 24, or 30 months of age were obtained from the National Institutes of Aging mouse aging colony. Mice were acclimated for at least one-week prior to sacrifice. 3, and 24-month-old mice were given interperitoneal (IP) injections of 500 mg NMN/kg body weight per day or the equivalent volume of PBS for 7 consecutive days at 5:00 pm and 7:00 am on day 8 and sacrificed 4 hr after last injection. All animal studies followed the guidelines of and were approved by the Harvard Institutional Animal Care and Use Committee
# Skeletal muscle mitochondria were isolated as described previously (Frezza et al., Nat. Protoc. 2:287-295 (2007)). Mitochondrial membrane potential, cytochrome c activity and succinate dehydrogenase were determined as described (Brautigan et al., Methods Enzymol. 53:128-164 (1978); Rolo et al., Biochim. Biophys. Acta. 1637:127-132 ([…]); Singer, T. P., Methods Biochem. Anal. 22:123-175 (1974)). ATP content was measured with a commercial kit according to the manufacturer's instructions (Roche).
# (§2) C57BL/6J mice of 6, 22, or 30 months of age were obtained from the National Institutes of Aging mouse aging colony. Additionally 22 months old caloric restricted mice were also obtained from the National Institutes of Aging mouse aging colony. EGLN1 KO, SIRT1 KO and SIRT1 OE mice were generated as previously described (Minamishima et al., 2008; Price et al., 2012). Mice were acclimated for at least one-week prior to sacrifice. 3, 6, 22 and 24-month-old mice were given interperitoneal (IP) injections of 500 mg NMN/kg body weight per day or the equivalent volume of PBS for 7 consecutive days at 5:00 pm and 7:00 am on day 8 and sacrificed 4 hr after last injection.
# (§3) Whole body SIRT1 overexpressor (SIRT1-tg) mice of 6 months of age were given interperitoneal (IP) injections of 300 mg DMOG/kg body weight per day or the equivalent volume of PBS for 5 consecutive days.
# (§4) Whole body adult-inducible Egln1 knockout mice (Minamishima et al, 2007) were treated with IP injection of tamoxifen for 3 days after which they were allowed to rest. The mice were given interperitoneal (IP) injections of 500 mg NMN/kg body weight per day or the equivalent volume of PBS for 7 consecutive days at 5:00 pm and 7:00 am on day 8 and sacrificed 4 hr after last injection. All animal studies followed the guidelines of and were approved by the Harvard Institutional Animal Care and Use Committee.
# Cytochrome c oxidase activity was polarographically determined based on the O2 consumption upon cytochrome c oxidation, as previously described (Brautigan et al., 1978). The reaction was carried out at 25° C. in 1.3 mL of standard respiratory medium (as in mitochondrial respiration) supplemented with 2 μM rotenone, 10 μM oxidized cytochrome c, 0.3 mg TritonX-100. Following addition of the sample, the reaction was initiated by adding 5 mM ascorbate plus 0.25 mM tetramethylphenylene-diamine (TMPD).
# ATP content was measured with a commercial kit according to the manufacturer's instructions (Roche).
# [2] = system: mitochondrial-encoded genes (ND1, Cytb, COX1 and ATP6); assay: qPCR of mitochondrial-encoded genes in gastrocnemius of treated mice; type: in vivo
# From the text: as §2, §3, §4, §1
# RNA from skeletal muscle and aorta were extracted with RNeasy mini kit (Qiagen) according to the instructions and quantified using the NanoDrop 1000 spectrophotometer (Thermo Scientific). cDNA was synthesized with the iSCRIP cDNA synthesis kit (BioRad) using 600 ng of RNA. Quantitative RT-PCR reactions were performed using 1 μM of primers and LightCycler® 480 SYBR Green Master (Roche) on an LightCycler® 480 detection system (Roche). […]
# [3] = Egln1 KO mice treated with NMN 500 mg/kg IP 7 days, compared to WT controls
# [4] = treated 24-month-old mice, NMN 500 mg/kg IP one week, skeletal muscle
# [5] = SIRT1-tg mice, DMOG 300 mg/kg IP per day, 5 days, gastrocnemius
smiles,measurement,setting,value
"NC(=O)c1ccc[n+]([C@@H]2O[C@H](COP(=O)([O-])O)[C@@H](O)[C@H]2O)c1 [NMN, nicotinamide mononucleotide]","expression of mitochondrially-encoded ETC genes (ND1, CYTB, COX1, ATP6)",PGC-1α/β KO myotubes; PGC-1α/β KO myotubes incubated with NMN (12 h),induced expression of mitochondrially-encoded ETC genes
same,ATP levels,"[1]; 6- and 22-month-old mice, NMN one week, gastrocnemius",increase in ATP levels
same,ATP levels in skeletal muscle,[1]; [3],did not restore
same,ability of NMN to improve mitochondrial function (membrane potential),"[1]; SIRT1 KO mice vs WT, NMN or PBS, skeletal muscle mitochondria",lost in animals lacking SIRT1
same,COX activity,"[1]; old mice, NMN one week, gastrocnemius (FIG. 24H)",increase
same,mitochondrial membrane potential,"[1]; treated 24-month-old mice, NMN 500 mg/kg IP one week, isolated skeletal muscle mitochondria",restoration of mitochondrial membrane potential to the levels of the young mice
same,ATP levels,[1]; [4],increases in ATP levels
same,COX activity,[1]; [4],increases
same,expression of mitochondrial-encoded genes,"[2]; 22-month-old mice, NMN one week, gastrocnemius",restored
same,mitochondrial-encoded genes in skeletal muscle,[2]; [3],did not restore mitochondrial-encoded genes
same,ability of NMN to induce mitochondrially-encoded genes,"[2]; SIRT1 KO mice vs WT, NMN or PBS, gastrocnemius",lost in animals lacking SIRT1
"COC(=O)CNC(=O)C(=O)OC [DMOG, dimethyloxaloylglycine]",effect on NMN-induced expression of mitochondrially-encoded ETC genes,"PGC-1α/β KO myotubes; PGC-1α/β KO myotubes, NMN plus 1 mM DMOG or 10 μM DFO, 12 hours",completely abolished
same,effect on NAD (pyruvate) mediated increases in mitochondrial-encoded genes,"PGC-1α/β KO myotubes; PGC-1α/β KO myotubes, pyruvate in presence of DMOG",inhibited
same,expression of mitochondrial-encoded genes compared to vehicle control,PGC-1α/β KO myotubes; PGC-1α/β knockout myotubes treated with DMOG,induced a decline in the expression of mitochondrial-encoded genes
same,effect on induction of mitochondrial ETC genes by SIRT1 overexpression,"PGC-1α/β KO myotubes; PGC-1α/β knockout myotubes with SIRT1 adenovirus, 1 mM DMOG or 10 μM DFO",completely blocked
same,increase in ATP levels observed in SIRT1-tg mice,[1]; [5],abolished
same,increase in expression of mitochondrial-encoded genes observed in SIRT1-tg mice,[2]; [5],abolished the increase in the expression of mitochondrial-encoded genes
